# Assay results published in patent US20140088306A1, “RADIOACTIVE FLUORINE-LABELED QUINOXALINE COMPOUND” (Nihon Medi-Physics Co., Ltd., priority 2012, published 2014).
# Entries after “also recorded” stand apart in the source; their conditions may differ.
# Experiments:
# [1] = tested on: Aβ plaques; experiment: In vitro autoradiography using postmortem brain section from Alzheimer's disease (Examples 14, 15); type: binding, human (Alzheimer's disease patient); conditions: brain section of Alzheimer's disease patient
# Procedure: A postmortem autopsy brain tissue of a patient with Alzheimer's disease identified by postmortem dissection was obtained from Graduate School of Medicine, Kyoto University. The presence and location of senile plaques in the section were confirmed by immunohistochemical staining using an anti-Aβ1-42 antibody. The section was incubated together with [^18F]D1 or [^18F]D2 (0.37 MBq/100 μL) at room temperature for 1 hour. The resultant was immersed in a 50 volume % ethanol aqueous solution (2 minutes×2) and washed with water (2 minutes×2). After drying, the section was exposed to BAS imaging plate (from Fujifilm Corporation) for 1.5 hours. The image of autoradiography was obtained using BAS5000 scanner system (from Fujifilm Corporation).
# A postmortem autopsy brain tissue of a patient with Alzheimer's disease identified by postmortem dissection was obtained from Graduate School of Medicine, Kyoto University, and serial sections […] of a paraffin-embedded brain tissue were used. First, they were each incubated with xylene (15 minutes×2), ethanol (1 minute×2), a 90 volume % ethanol aqueous solution (1 minute×2), and a 70 volume % ethanol aqueous solution (1 minute×1) in that order to perfectly perform deparaffinization, and then washed in water (2.5 minutes×2). Thereafter, for antibody recovery, the section was subjected to autoclave treatment for 15 minutes in 0.01 mol/L citrate buffer solution (pH 6.0). The resultant was incubated in PBS-Tween20 (5 minutes×2), and, for antibody recovery, incubated in a 90 volume % formic acid aqueous solution at room temperature for 5 minutes. The section was washed for 5 minutes with flowing tap water, and then incubated in PBS-Tween20 (2 minutes×1). The section was incubated with a mouse anti-Aβ1-42 monoclonal primary antibody (from Wako Pure Chemical Industries Ltd.) at room temperature overnight. The resultant was incubated in PBS-Tween20 (5 minutes×3) and then incubated together with biotin goat anti-mouse IgG (from Funakoshi Co., Ltd.) at room temperature for 1 hour. […]
# [2] = In vivo radioactivity distribution experiment in normal mouse (Example 16); design: species or system ddY mice; conditions: for Radioactivity Amount, Blood / Radioactivity Amount, Bone / Radioactivity Amount, Brain / Radioactivity Amount, Heart / Radioactivity Amount, Intestine / Radioactivity Amount, Kidney / Radioactivity Amount, Liver / Radioactivity Amount, Lung / Radioactivity Amount, Pancreas / Radioactivity Amount, Spleen / Radioactivity Amount, Stomach*: normal ddY mice, tail vein, average for 5 mice (SD)
# Procedure: An ethanol (10 μL)-containing saline solution of [^18F]D1 (25.8 kBq) or [^18F]D2 (48.2 kBq) (100 μL) was injected into the tail vein of ddY mice (male, 5-week old). Five mice were used for each group and sacrificed 2, 10, 30, and 60 minutes after administration to remove major organs. The blood and organs were weighed and further measured for radioactivity using a γ counter (Wallac 1470 Wizard 3, from Perkin-Elmer). The percent injected dose per organ was calculated by comparing tissue counts with suitably diluted aliquots of the injected material. The percent injected dose/g of each sample was calculated by comparing sample counts with the counts of the diluted initial dose.
compound,measurement,setting,value
4-(6-(2-[^18F]Fluoroethoxy)quinoxalin-2-yl)-N-methylaniline [[^18F]D2],binding to / background in the white matter by autoradiography,[1],low degree of background in the white matter
same,labeling of Aβ plaques by autoradiography,"[1]; 0.37 MBq/100 μL, 1 hour",provided a strong marker for Aβ plaques; also recorded: corresponded to the results of antibody immunohistochemical staining
same,"Radioactivity Amount, Blood",[2]; 2 min. after,3.91 (0.22) % injected dose/g
same,"Radioactivity Amount, Blood",[2]; 10 min. after,3.35 (0.43) % injected dose/g
same,"Radioactivity Amount, Blood",[2]; 30 min. after,3.83 (0.18) % injected dose/g
same,"Radioactivity Amount, Blood",[2]; 60 min. after,4.15 (0.31) % injected dose/g
same,"Radioactivity Amount, Bone",[2]; 2 min. after,2.81 (0.52) % injected dose/g
same,"Radioactivity Amount, Bone",[2]; 10 min. after,2.12 (0.11) % injected dose/g
same,"Radioactivity Amount, Bone",[2]; 30 min. after,2.86 (0.45) % injected dose/g
same,"Radioactivity Amount, Bone",[2]; 60 min. after,4.26 (0.29) % injected dose/g
same,"Radioactivity Amount, Brain",[2]; 2 min. after,6.19 (0.30) % injected dose/g
same,"Radioactivity Amount, Brain",[2]; 10 min. after,5.11 (0.28) % injected dose/g
same,"Radioactivity Amount, Brain",[2]; 30 min. after,2.73 (0.16) % injected dose/g
same,"Radioactivity Amount, Brain",[2]; 60 min. after,2.41 (0.12) % injected dose/g
same,"Radioactivity Amount, Heart",[2]; 2 min. after,6.12 (0.45) % injected dose/g
same,"Radioactivity Amount, Heart",[2]; 10 min. after,3.93 (0.40) % injected dose/g
same,"Radioactivity Amount, Heart",[2]; 30 min. after,3.20 (0.32) % injected dose/g
same,"Radioactivity Amount, Heart",[2]; 60 min. after,3.80 (0.22) % injected dose/g
same,"Radioactivity Amount, Intestine",[2]; 2 min. after,3.40 (0.34) % injected dose/g
same,"Radioactivity Amount, Intestine",[2]; 10 min. after,8.06 (0.95) % injected dose/g
same,"Radioactivity Amount, Intestine",[2]; 30 min. after,12.13 (2.05) % injected dose/g
same,"Radioactivity Amount, Intestine",[2]; 60 min. after,13.37 (1.03) % injected dose/g
same,"Radioactivity Amount, Kidney",[2]; 2 min. after,9.86 (0.77) % injected dose/g
same,"Radioactivity Amount, Kidney",[2]; 10 min. after,6.40 (0.62) % injected dose/g
same,"Radioactivity Amount, Kidney",[2]; 30 min. after,4.14 (0.31) % injected dose/g
same,"Radioactivity Amount, Kidney",[2]; 60 min. after,3.08 (0.21) % injected dose/g
same,"Radioactivity Amount, Liver",[2]; 2 min. after,8.81 (1.00) % injected dose/g
same,"Radioactivity Amount, Liver",[2]; 10 min. after,9.29 (0.40) % injected dose/g
same,"Radioactivity Amount, Liver",[2]; 30 min. after,7.07 (0.19) % injected dose/g
same,"Radioactivity Amount, Liver",[2]; 60 min. after,6.10 (0.41) % injected dose/g
same,"Radioactivity Amount, Lung",[2]; 2 min. after,8.13 (1.13) % injected dose/g
same,"Radioactivity Amount, Lung",[2]; 10 min. after,5.10(0.74) % injected dose/g
same,"Radioactivity Amount, Lung",[2]; 30 min. after,3.94 (0.33) % injected dose/g
same,"Radioactivity Amount, Lung",[2]; 60 min. after,3.92 (0.11) % injected dose/g
same,"Radioactivity Amount, Pancreas",[2]; 2 min. after,6.47 (0.75) % injected dose/g
same,"Radioactivity Amount, Pancreas",[2]; 10 min. after,3.88 (0.52) % injected dose/g
same,"Radioactivity Amount, Pancreas",[2]; 30 min. after,2.72 (0.29) % injected dose/g
same,"Radioactivity Amount, Pancreas",[2]; 60 min. after,2.64 (0.34) % injected dose/g
same,"Radioactivity Amount, Spleen",[2]; 2 min. after,3.14 (0.55) % injected dose/g
same,"Radioactivity Amount, Spleen",[2]; 10 min. after,3.76 (0.55) % injected dose/g
same,"Radioactivity Amount, Spleen",[2]; 30 min. after,3.07 (0.32) % injected dose/g
same,"Radioactivity Amount, Spleen",[2]; 60 min. after,2.99 (0.21) % injected dose/g
same,"Radioactivity Amount, Stomach*",[2]; 2 min. after,1.32 (0.21) % injected dose per organ
same,"Radioactivity Amount, Stomach*",[2]; 10 min. after,1.86 (0.38) % injected dose per organ
same,"Radioactivity Amount, Stomach*",[2]; 30 min. after,2.44 (0.62) % injected dose per organ
same,"Radioactivity Amount, Stomach*",[2]; 60 min. after,2.00 (0.76) % injected dose per organ
"Nc1ccc(-c2cnc3cc(OCC[18F])ccc3n2)cc1 [[^18F]D1, 4-(6-(2-[^18F]Fluoroethoxy)quinoxalin-2-yl)aniline]",binding to / background in the white matter by autoradiography,[1],high non-specific binding to the white matter
same,"Radioactivity Amount, Liver",[2]; 2 min. after,5.30 (1.33) % injected dose/g
same,"Radioactivity Amount, Liver",[2]; 10 min. after,6.58 (0.47) % injected dose/g
same,"Radioactivity Amount, Liver",[2]; 30 min. after,4.90 (0.29) % injected dose/g
same,"Radioactivity Amount, Liver",[2]; 60 min. after,4.88 (0.30) % injected dose/g
same,amount of radioactivity in the brain,"[2]; mouse, in vivo",2.41-3.08 % ID/g
